Reference: ChEMBL document CHEMBL1123898, “Antitumor imidazotetrazines. 14. Synthesis and antitumor activity of 6- and 8-substituted imidazo[5,1-d]-1,2,3,5-tetrazinones and 8-substituted pyrazolo[5,1-d]-1,2,3,5-tetrazinones” (1987)

Assays:
[1] = test system: L1210; assay: Antitumor activity was assessed against L1210 tumors in B6D2F1 mouse by inoculation of 10e5 tumor cells through intravenous route and mean death of animals (treated/control) was reported at 10 mg/kg peroral dose; format: functional; conditions: route oral
[2] = test system: L1210; assay: Antitumor activity was assessed against L1210 tumors in B6D2F1 mouse by inoculation of 10e5 tumor cells through intravenous route and mean death of animals (treated/control) was reported at 20 mg/kg peroral dose; format: functional; conditions: route oral
[3] = test system: L1210; assay: Antitumor activity was assessed against L1210 tumors in B6D2F1 mouse by inoculation of 10e5 tumor cells through intravenous route and mean death of animals (treated/control) was reported at 40 mg/kg peroral dose; format: functional; conditions: route oral
[4] = test system: L1210; assay: Antitumor activity was assessed against L1210 tumors in B6D2F1 mouse by inoculation of 10e5 tumor cells through intravenous route and number of Survivors to duration was reported at 40 mg/kg peroral dose; 5/7; format: functional; conditions: route oral
[5] = test system: L1210; assay: Antitumor activity was assessed against L1210 tumors in B6D2F1 mouse by inoculation of 10e5 tumor cells through intravenous route and mean death of animals (treated/control) was reported at 5 mg/kg peroral dose; format: functional; conditions: route oral
[6] = test system: L1210; assay: Antitumor activity was assessed against L1210 tumors in B6D2F1 mouse by inoculation of 10e5 tumor cells through intravenous route and number of Survivors to duration was reported at 40 mg/kg peroral dose; 1/7; format: functional; conditions: route oral
[7] = Antitumor activity was assessed against TLX5 tumors in CBA/CA mouse by inoculation of 2 x 10e5 tumor cells through subcutaneous route and number of Survivors to duration was reported at 40 mg/kg ip dose; 4/5; format: functional
[8] = Antitumor activity was assessed against TLX5 tumors in CBA/CA mouse by inoculation of 2 x 10e5 tumor cells through subcutaneous route and mean death of animals (treated/control) was reported at 10 mg/kg ip dose; format: functional
[9] = Antitumor activity was assessed against TLX5 tumors in CBA/CA mouse by inoculation of 2 x 10e5 tumor cells through subcutaneous route and mean death of animals (treated/control) was reported at 20 mg/kg ip dose; format: functional
[10] = Antitumor activity was assessed against TLX5 tumors in CBA/CA mouse by inoculation of 2 x 10e5 tumor cells through subcutaneous route and mean death of animals (treated/control) was reported at 40 mg/kg ip dose; format: functional
[11] = Antitumor activity was assessed against TLX5 tumors in CBA/CA mouse by inoculation of 2 x 10e5 tumor cells through subcutaneous route and mean death of animals (treated/control) was reported at 5 mg/kg ip dose; format: functional
[12] = Antitumor activity was assessed against TLX5 tumors in CBA/CA mouse by inoculation of 2 x 10e5 tumor cells through subcutaneous route and mean death of animals (treated/control) was reported at 160 mg/kg dose; format: functional
[13] = Antitumor activity was assessed against TLX5 tumors in CBA/CA mouse by inoculation of 2 x 10e5 tumor cells through subcutaneous route and mean death of animals (treated/control) was reported at 20 mg/kg dose; format: functional
[14] = Antitumor activity was assessed against TLX5 tumors in CBA/CA mouse by inoculation of 2 x 10e5 tumor cells through subcutaneous route and mean death of animals (treated/control) was reported at 40 mg/kg dose; format: functional
[15] = Antitumor activity was assessed against TLX5 tumors in CBA/CA mouse by inoculation of 2 x 10e5 tumor cells through subcutaneous route and mean death of animals (treated/control) was reported at 80 mg/kg dose; format: functional
[16] = Antitumor activity was assessed against TLX5 tumors in CBA/CA mouse by inoculation of 2 x 10e5 tumor cells through subcutaneous route and number of Survivors to duration was reported at 80 mg/kg iv dose; 3/5
[17] = Antitumor activity was assessed against TLX5 tumors in CBA/CA mouse by inoculation of 2 x 10e5 tumor cells through subcutaneous route and number of Survivors to duration was reported at 40 mg/kg iv dose; 5/5
[18] = test system: L1210; assay: Antitumor activity was assessed against L1210 tumors in B6D2F1 mouse by inoculation of 10e5 tumor cells through intraperitoneal route and number of Survivors to duration was reported at 20 mg/kg peroral dose; 8/10; conditions: route oral
[19] = test system: L1210; assay: Antitumor activity was assessed against L1210 tumors in B6D2F1 mouse by inoculation of 10e5 tumor cells through intraperitoneal route and number of Survivors to duration was reported at 40 mg/kg peroral dose; 4/10; conditions: route oral
[20] = test system: L1210; assay: Antitumor activity was assessed against L1210 tumors in B6D2F1 mouse by inoculation of 10e5 tumor cells through iv route and number of Survivors to duration was reported at 200 mg/kg po dose; 10/10; format: functional
[21] = test system: L1210; assay: Antitumor activity was assessed against L1210 tumors in B6D2F1 mouse by inoculation of 10e5 tumor cells through iv route and mean death of animals (treated/control) was reported at 50 mg/kg po dose; format: functional
[22] = test system: L1210; assay: Antitumor activity was assessed against L1210 tumors in B6D2F1 mouse by inoculation of 10e5 tumor cells through iv route and mean death of animals (treated/control) was reported at 100 mg/kg po dose; format: functional
[23] = test system: L1210; assay: Antitumor activity was assessed against L1210 tumors in B6D2F1 mouse by inoculation of 10e5 tumor cells through iv route and mean death of animals (treated/control) was reported at 200 mg/kg po dose; format: functional
[24] = Antitumor activity was assessed against TLX5 tumors in CBA/CA mouse by inoculation of 2 x 10e5 tumor cells through sc route and mean death of animals (treated/control) was reported at 160 mg/kg ip dose; format: functional; conditions: route subcutaneous
[25] = Antitumor activity was assessed against TLX5 tumors in CBA/CA mouse by inoculation of 2 x 10e5 tumor cells through sc route and mean death of animals (treated/control) was reported at 320 mg/kg ip dose; format: functional; conditions: route subcutaneous
[26] = Antitumor activity was assessed against TLX5 tumors in CBA/CA mouse by inoculation of 2 x 10e5 tumor cells through sc route and mean death of animals (treated/control) was reported at 40 mg/kg ip dose; format: functional; conditions: route subcutaneous
[27] = Antitumor activity was assessed against TLX5 tumors in CBA/CA mouse by inoculation of 2 x 10e5 tumor cells through sc route and number of Survivors to duration was reported at 160 mg/kg ip dose; 1/5; format: functional; conditions: route subcutaneous
[28] = Antitumor activity was assessed against TLX5 tumors in CBA/CA mouse by inoculation of 2 x 10e5 tumor cells through sc route and mean death of animals (treated/control) was reported at 80 mg/kg ip dose; format: functional; conditions: route subcutaneous
[29] = test system: L1210; assay: Antitumor activity was assessed against L1210 tumors in B6D2F1 mouse by inoculation of 10e5 tumor cells through iv route and number of survivors to duration was reported at 200 mg/kg po dose; 2/7; format: functional
[30] = test system: L1210; assay: Antitumor activity was assessed against L1210 tumors in B6D2F1 mouse by inoculation of 10e5 tumor cells through iv route and number of Survivors to duration was reported at 100 mg/kg po dose; 5/7; format: functional
[31] = test system: L1210; assay: Antitumor activity was assessed against L1210 tumors in B6D2F1 mouse by inoculation of 10e5 tumor cells through iv route and number of Survivors to duration was reported at 200 mg/kg po dose; 1/7; format: functional
[32] = test system: L1210; assay: Antitumor activity was assessed against L1210 tumors in B6D2F1 mouse by inoculation of 10e5 tumor cells through iv route and mean death of animals (treated/control) was reported at 25 mg/kg po dose; format: functional
[33] = Antitumor activity was assessed against TLX5 tumors in CBA/CA mouse by inoculation of 2 x 10e5 tumor cells through sc route and mean death of animals (treated/control) was reported at 10 mg/kg ip dose; format: functional; conditions: route subcutaneous
[34] = Antitumor activity was assessed against TLX5 tumors in CBA/CA mouse by inoculation of 2 x 10e5 tumor cells through sc route and mean death of animals (treated/control) was reported at 20 mg/kg ip dose; format: functional; conditions: route subcutaneous
[35] = test system: L1210; assay: Antitumor activity was assessed against L1210 tumors in B6D2F1 mouse by inoculation of 10e5 tumor cells through intraperitoneal route and mean death of animals (treated/control) was reported at 100 mg/kg peroral dose; format: functional; conditions: route oral
[36] = test system: L1210; assay: Antitumor activity was assessed against L1210 tumors in B6D2F1 mouse by inoculation of 10e5 tumor cells through intraperitoneal route and mean death of animals (treated/control) was reported at 200 mg/kg peroral dose; format: functional; conditions: route oral
[37] = test system: L1210; assay: Antitumor activity was assessed against L1210 tumors in B6D2F1 mouse by inoculation of 10e5 tumor cells through intraperitoneal route and mean death of animals (treated/control) was reported at 50 mg/kg peroral dose; format: functional; conditions: route oral
[38] = Antitumor activity was assessed against TLX5 tumors in CBA/CA mouse by inoculation of 2 x 10e5 tumor cells through sc route and number of Survivors to duration was reported at 320 mg/kg iv dose; 1/5; format: functional
[39] = Antitumor activity was assessed against TLX5 tumors in CBA/CA mouse by inoculation of 2 x 10e5 tumor cells through subcutaneous route and mean death of animals (treated/control) was reported at 80 mg/kg iv dose; format: functional
[40] = Antitumor activity was assessed against TLX5 tumors in CBA/CA mouse by inoculation of 2 x 10e5 tumor cells through subcutaneous route and mean death of animals (treated/control) was reported at 160 mg/kg iv dose; format: functional
[41] = Antitumor activity was assessed against TLX5 tumors in CBA/CA mouse by inoculation of 2 x 10e5 tumor cells through subcutaneous route and mean death of animals (treated/control) was reported at 320 mg/kg iv dose; format: functional
[42] = Antitumor activity was assessed against TLX5 tumors in CBA/CA mouse by inoculation of 2 x 10e5 tumor cells through subcutaneous route and mean death of animals (treated/control) was reported at 40 mg/kg iv dose; format: functional
[43] = Antitumor activity was assessed against TLX5 tumors in CBA/CA mouse by inoculation of 2 x 10e5 tumor cells through subcutaneous route and mean death of animals (treated/control) was reported at 640 mg/kg iv dose; format: functional
[44] = Antitumor activity was assessed against TLX5 tumors in CBA/CA mouse by inoculation of 2 x 10e5 tumor cells through subcutaneous route and mean death of animals (treated/control) was reported at 320 mg/kg dose; format: functional

## CS(=O)(=O)c1cnn2c(=O)n(CCCl)nnc12
[1]
  T/C: 155%
[2]
  T/C: 307%
[3]
  T/C: >447%
[4]
  Survivors: 5

## NC(=O)c1ncn2c(=O)n(CCCl)nnc12 [MITOZOLOMIDE]
[1]
  T/C: 178%
[2]
  T/C: 217%
[3]
  T/C: >330%
[5]
  T/C: 133%
[6]
  Survivors: 1
[7]
  Survivors: 4
[8]
  T/C: 163%
[9]
  T/C: 167%
[10]
  T/C: >458%
[11]
  T/C: 113%

## CN(C)C(=O)c1ncn2c(=O)n(CCCl)nnc12
[1]
  T/C: 197%
[2]
  T/C: >290%
[3]
  T/C: >235%
[12]
  T/C: 68%
[13]
  T/C: 161%
[14]
  T/C: >508%
[15]
  T/C: >358%
[16]
  Survivors: 3
[17]
  Survivors: 5
[18]
  Survivors: 8
[19]
  Survivors: 4

## CN(C)C(=O)c1cnn2c(=O)n(CCCl)nnc12
[20]
  Survivors: 10
[21]
  T/C: 144%
[22]
  T/C: 250%
[23]
  T/C: >600%
[24]
  T/C: >248%
[25]
  T/C: 48%
[26]
  T/C: 109%
[27]
  Survivors: 1
[28]
  T/C: 131%

## CCCc1nc(C(N)=O)c2nnn(CCCl)c(=O)n12
[29]
  Survivors: 2
[21]
  T/C: 151%
[22]
  T/C: 186%
[23]
  T/C: >295%

## NC(=O)c1cnn2c(=O)n(CCCl)nnc12
[30]
  Survivors: 5
[31]
  Survivors: 1
[32]
  T/C: 120%
[21]
  T/C: 186%
[22]
  T/C: >530%
[23]
  T/C: 363%
[33]
  T/C: 98%
[24]
  T/C: 221%
[34]
  T/C: 123%
[26]
  T/C: 116%
[28]
  T/C: 143%

## O=C(c1ncn2c(=O)n(CCCl)nnc12)N1CCCCC1
[35]
  T/C: 108%
[36]
  T/C: 171%
[37]
  T/C: 100%
[38]
  Survivors: 1
[39]
  T/C: 102%
[40]
  T/C: 120%
[41]
  T/C: >234%
[42]
  T/C: 98%
[43]
  T/C: 25%

## O=C(Nc1ccccc1)c1ncn2c(=O)n(CCCl)nnc12
[12]
  T/C: 98%
[13]
  T/C: 98%
[44]
  T/C: 98%
[14]
  T/C: 103%
[15]
  T/C: 100%
